Measured values taken from patent US20240366611A1, “METHODS OF TREATING A DISEASE OR DISORDER” (Ascentage Pharma (Suzhou) Co., Ltd., priority 2021, published 2024).

What was measured:
[1] = tested on: CD4+CD45RBhigh T-cell transfer-induced IBD in CB17 mice; assay: T cell transfer induced inflammatory bowel disease (IBD) model; type: in vivo; settings: 90 mg/kg po qd day 14 to day 41
From the text: Female CB17 mice (8 weeks old) were obtained from Zhejiang Vital River Laboratory Animal Co. Ltd. Animals were housed and handled in a temperature-controlled environment with a 12-h light/12-h dark cycle. A total of 30 mice were assigned to 3 groups by randomization based on body weight.
To generate T cell transfer induced colitis, 95 female Balb/c mice, aged 8-10 weeks, were used to prepare naive CD4^+CD45RB^high T and CD4^+CD45RB^low T cells. The mouse spleens were harvested in precooled DPBS, grinded into cell suspension and passed through a 70 μm cell filter after erythrocytes lysed by ACK. Cells were collected and counted by centrifugation. Then, CD4 positive T cells were isolated by using negative magnetic bead separation kit. CD4^+CD45RB^high naive T cells were selected by flow cytometry and used for model construction. 20 CB17 model mice were intraperitoneally injected with 5×10^5 naive CD4^+CD45RB^high T cells each on Day 0. 10 mice in negative control group were intraperitoneally injected with 5×10^5 CD4^+CD45RB^low T cells on Day 0.
Mice in Group 2 were treated with vehicle for 28 days (po, qd, from day 14 to day 41). Mice in Group 3 were treated with 90 mg/kg Cpd. 73 for 28 days (therapeutic regimen, po, qd, from day 14 to day 41). The protocols and procedures involving the care and use of animals were approved by the Institutional Animal Care and Use Committee (IACUC) at WuxiApptec (Shanghai, China).
Clinical signs of IBD were assessed every day based on the score of disease activity index (DAI) which was evaluated from two parameters using a scoring system from 0 to 4: stool consistency (0, normal stool; 1, soft but still formed stool; 2, soft and not formed stool; 3, very soft and wet stool; 4, watery diarrhea), and body weight loss (0, no body weight loos; 1, 1-5% body weight loss; 2, 6-10% body weight loss; 3, 11-20% body weight loss; 4, >20% body weight loss).
At the end of the study (day 42), the animals were euthanized, dissected and the entire colon was quickly removed and gently cleared of feces.
At the end of the study (day 42), all the animals were sacrificed by CO2. The colon was Swiss-rolled and fixed with neutralized PFA followed by H&E staining. After that, the pathologists from WuXi clinical pathological analysis platform, who were blinded to animal ID, reviewed the H&E staining and scored. The pathological scoring standards were as follows: crypt architecture (normal, 0; severe crypt distortion with loss of entire crypts, 3), degree of inflammatory cell infiltration (normal, 0; dense inflammatory infiltrate, 3), muscle thickening (normal, 0; marked muscle thickening present, 3), goblet cell depletion (absent, 0; present, 1) and crypt abscess (absent, 0; present, 1).

[2] = tested on: H3K27me3 in TER119+ erythroid lineage cells; assay: H3K27me3 level in TER119+ erythroid lineage cells from bone marrow (FACS, H3K27me3/H3 ratio); type: in vivo, CD-1 mice
Procedure: Female CD-1 mice (8 weeks old) were housed and handled in a temperature-controlled environment with a 12-h light/12-h dark cycle. A total of 25 mice were assigned to 5 groups by randomization based on body weight, followed by 5 days of treatment with vehicle (po, qd), 3 mg/kg Cpd. 73 (po, qd), 10 mg/kg Cpd. 73 (po, qd), 30 mg/kg Cpd. 73 (po, qd), or 90 mg/kg Cpd. 73 (po, qd). The protocols and procedures involving the care and use of animals were approved by the Institutional Animal Care and Use Committee (IACUC) of WuXiAppTec (Shanghai) Co., Ltd. (Shanghai, China).
Mice were euthanatized 4 hours post the last dose. Whole blood and bone marrow were collected. Bone marrow cells were flushed from femur and tibia with IMDM+/+ (IMDM, 10% heat inactivated FBS, 100 U/mL penicillin and 100 μg/mL streptomycin). Aggregate was removed by passing through 40 μm cell strainer. 5 mL DPBS was used to pellet the cells after centrifugation, and the cell number was counted. Whole blood was added with 1×RBC lysis buffer remove RBC (whole blood: 1×RBC lysis buffer=1:9), and mononuclear cells were collected by centrifugation. The cells were then washed with 1×DPBS for once and resuspended in 3 ml DPBS after centrifugation followed by cell number counting.
Bone marrow cells were stained with FITC-conjugated anti-mouse TER-119 antibody (Thermo Fisher, 11-5921-82) and eFluor 506-conjugated anti-mouse CD45 antibody (Thermo Fisher, 69-0451-82). TER-119+ cells were erythroid lineage cells. PBMC were stained with eFlour 450-conjugated anti-mouse CD11b antibody (Invitrogen, 48-0112-82), PerCP-eFluor710-conjugated anti-mouse CD3 antibody (Invitrogen, 46-0032-82), eFluor 506-conjugated anti-mouse CD45 antibody (Thermo Fisher, 69-0451-82). CD45+CD3−CD11b+ cells were monocytes from PBMC.
After washing, centrifugation and fixation, the cells were permeabilized and further incubated with antibodies of H3K27m3 (Tri-Methyl-Histone H3 (Lys27) (C36B11) Rabbit mAb (PE Conjugate), CST, 40724S) and H3 (Histone H3 (D1H2) XP® Rabbit mAb (Alexa Fluor®647 Conjugate), CST, 12230S), followed by FACS analysis to quantify the mean fluorescence intensity of target cells. The ratio between the fluorescence intensity of H3K27me3 and H3 were used to reflect the level of H3K27me3 in the cells.

[3] = tested on: chronic kidney disease-induced anemia in SD rats; assay: Rat model of chronic kidney disease-induced anemia (adenine); type: in vivo; settings: 5, 15, 45 mg/kg po QD×4 weeks, end of study
Procedure: SPF-grade male SD rats (200±20 g, 8 weeks) were purchased from Zhejiang Vital River Laboratory Animal Technology Co., Ltd. After acclimating for a week, blood samples were collected and analyzed to exclude anormal animals. The normal animals were randomized, 10 animals were assigned into Control group which were left untreated until the end of the study, and the rest animals received 300 mg/kg adenine by oral gavage (QD×6 weeks). […] Then 60 adenine-treated rats with successful model establishment were further randomized into the following six groups: Model group (treated with vehicle), EPO group (50 U/kg), Cpd. 73 5 mg/kg group, Cpd. 73 15 mg/kg group, Cpd. 73 45 mg/kg group and CPD. 73+EPO group (15 mg/kg+50 U/kg). Each group contained 10 animals. Cpd. 73 was administered to rats by oral gavage (QD×4 weeks), while EPO was subcutaneously administered (TIW×4 weeks).
Body weight, mortality and health condition of rats were recorded twice a week. After model establishment, blood samples were take from the orbit and a few parameters were determined including RBC, HGB, HCT, RET, BUN and Creatine. Blood samples were taken once a week during drug treatment and RBC, HGB, HCT, and RET were analyzed.

SMILES: CC(C)N1Cc2cc(C(F)(F)F)ncc2-c2cnc(NCc3c(F)ccc4c3CCO4)n3cnc(c23)C1=O [Cpd. 73, 12-(((5-fluoro-2,3-dihydrobenzofuran-4-yl)methyl)amino)-4-isopropyl-7-(trifluoromethyl)-4,5-dihydro-3H-2,4,8,11,12a-pentaazabenzo[4,5]cycloocta[1,2,3-cd]inden-3-one]
- body weight loss [1]: improved
- colon length ([1]; day 42, vehicle 7.72±0.18 cm): 10.26±0.22 cm
- pathological score (H&E, colon) ([1]; day 42, vehicle 9.00±0.47): 3.70±0.37
- colon weight ([1]; day 42, vehicle 439.10±25.46 mg): 323.40 ± 16.06 mg
- DAI score ([1]; on day 42, vehicle 4.90±0.41): 1.4±0.27
- decrease in H3K27me3 level ([2]; 3 mg/kg po qd×5 days, vs vehicle): 21.2%
- decrease in H3K27me3 level ([2]; 10 mg/kg po qd×5 days, vs vehicle): 18.7%
- decrease in H3K27me3 level ([2]; 30 mg/kg po qd×5 days, vs vehicle): 21.6%
- decrease in H3K27me3 level ([2]; 90 mg/kg po qd×5 days, p<0.01 vs vehicle): 39.7%
- body weight ([3]; p<0.001 or 0.01 vs Model): dose-dependently improved
- HCT ([3]; p<0.001 or 0.05 vs Model): dose-dependently improved
- HGB ([3]; p<0.001 or 0.05 vs Model): dose-dependently improved
- RBC ([3]; p<0.001 or 0.05 vs Model): dose-dependently improved
- RET ([3]; p<0.001 or 0.05 vs Model): dose-dependently improved
